Source: ChEMBL document CHEMBL4813945, “Discovery and development of novel pyrimidine and pyrazolo/thieno-fused pyrimidine derivatives as potent and orally active inducible nitric oxide synthase dimerization inhibitor with efficacy for arthritis” (Eur J Med Chem, 2021)

Columns and labels:
[1] = Metabolic stability in human hepatocytes assessed as half life measured upto 120 mins by LC-MS/MS analysis; assay type: ADME, cell-based, Hepatocyte
[2] = Metabolic stability in rat hepatocytes assessed as intrinsic clearance incubated up to 120 mins measured per million cells by LC-MS/MS analysis; assay type: ADME, cell-based, Hepatocyte; conditions: read-out: CLH
[3] = Metabolic stability in human hepatocytes assessed as clearance incubated up to 120 mins measured per million cells by LC-MS/MS analysis; assay type: ADME, cell-based, Hepatocyte; conditions: read-out: CLH
[4] = Metabolic stability in rat hepatocytes assessed as half life measured upto 120 mins by LC-MS/MS analysis; assay type: ADME, cell-based, Hepatocyte
RAW264.7 [5] = test: Cytotoxicity against LPS-induced mouse RAW 264.7 cells assessed as cell viability measured by MTT assay; assay type: cell-based
RAW264.7 [6] = test: Antiinflammatory activity against mouse RAW264.7 cells assessed as inhibition of LPS-induced NO production at 10 uM preincubated for 1 hrs followed by LPS stimulation and measured after 24 hrs by Griess assay relative to control; assay type: functional; conditions: time 25 hrs
L02 [7] = test: Cytotoxicity against human L02 cells assessed as cell viability by MTT assay; assay type: cell-based
[8] = target: T1, Nitric oxide synthase, inducible (Mus musculus, UniProt P29477); test: Inhibition of LPS induced NO-dependent iNOS activity in mouse RAW 264.7 cells preincubated for 1 hrs followed by LPS stimulation and measured after 24 hrs by Griess reagent based assay; assay type: cell-based, RAW264.7
T1 sequence (P29477 whole entry): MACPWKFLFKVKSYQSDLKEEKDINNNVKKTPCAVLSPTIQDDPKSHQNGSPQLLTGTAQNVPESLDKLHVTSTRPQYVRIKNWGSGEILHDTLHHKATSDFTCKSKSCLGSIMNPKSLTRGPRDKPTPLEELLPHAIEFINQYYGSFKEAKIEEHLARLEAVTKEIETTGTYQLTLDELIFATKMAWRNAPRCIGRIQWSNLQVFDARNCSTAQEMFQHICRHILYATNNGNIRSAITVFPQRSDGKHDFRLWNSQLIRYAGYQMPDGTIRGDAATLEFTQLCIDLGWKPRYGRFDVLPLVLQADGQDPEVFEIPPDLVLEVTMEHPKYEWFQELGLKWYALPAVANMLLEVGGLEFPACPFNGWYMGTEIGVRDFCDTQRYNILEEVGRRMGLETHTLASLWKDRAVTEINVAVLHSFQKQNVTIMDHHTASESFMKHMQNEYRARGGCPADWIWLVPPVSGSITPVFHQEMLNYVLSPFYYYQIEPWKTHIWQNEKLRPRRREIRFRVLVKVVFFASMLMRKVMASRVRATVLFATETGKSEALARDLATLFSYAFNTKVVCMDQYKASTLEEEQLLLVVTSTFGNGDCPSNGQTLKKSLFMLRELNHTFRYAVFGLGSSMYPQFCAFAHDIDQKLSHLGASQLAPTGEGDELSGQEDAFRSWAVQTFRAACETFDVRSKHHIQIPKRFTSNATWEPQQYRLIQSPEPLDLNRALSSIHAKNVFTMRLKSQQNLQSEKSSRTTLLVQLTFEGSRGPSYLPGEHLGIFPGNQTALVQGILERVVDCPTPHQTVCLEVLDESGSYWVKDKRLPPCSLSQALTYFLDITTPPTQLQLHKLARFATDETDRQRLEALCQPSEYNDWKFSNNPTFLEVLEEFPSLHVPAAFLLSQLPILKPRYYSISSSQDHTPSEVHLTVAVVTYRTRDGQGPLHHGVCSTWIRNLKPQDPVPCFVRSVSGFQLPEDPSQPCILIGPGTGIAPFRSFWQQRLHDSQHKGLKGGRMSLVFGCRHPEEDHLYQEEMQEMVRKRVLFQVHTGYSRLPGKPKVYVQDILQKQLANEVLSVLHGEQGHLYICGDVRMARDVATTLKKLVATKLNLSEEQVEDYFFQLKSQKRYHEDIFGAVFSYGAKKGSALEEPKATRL

L02 [9] = test: Antiinflammatory activity against human L02 assessed as inhibition of LPS-induced NO production preincubated for 1 hrs followed by LPS stimulation and measured after 24 hrs by Griess assay relative to control; assay type: functional, cell-based
RAW264.7 [10] = test: Cytotoxicity against mouse RAW 264.7 cells assessed as cell viability by MTT assay; assay type: cell-based
RAW264.7 [11] = test: Inhibition of LPS-induced NO release in mouse RAW264.7 cells preincubated for 1 hrs followed by LPS stimulation and measured after 24 hrs by Griess reagent based assay; assay type: functional, cell-based
RAW264.7 [12] = test: Cytotoxicity against mouse RAW264.7 cells at 20 uM measured after 24 hrs; assay type: cell-based; conditions: raw264.7, 24 h
Cytochrome P450 1A2 = target: T2, Cytochrome P450 1A2 (Homo sapiens, UniProt P05177); test: Inhibition of CYP1A2 in human liver microsomes using Phenacetin as substrate measured after 20 mins by LC-MS/MS analysis; assay type: ADME
T2 sequence (P05177 whole entry): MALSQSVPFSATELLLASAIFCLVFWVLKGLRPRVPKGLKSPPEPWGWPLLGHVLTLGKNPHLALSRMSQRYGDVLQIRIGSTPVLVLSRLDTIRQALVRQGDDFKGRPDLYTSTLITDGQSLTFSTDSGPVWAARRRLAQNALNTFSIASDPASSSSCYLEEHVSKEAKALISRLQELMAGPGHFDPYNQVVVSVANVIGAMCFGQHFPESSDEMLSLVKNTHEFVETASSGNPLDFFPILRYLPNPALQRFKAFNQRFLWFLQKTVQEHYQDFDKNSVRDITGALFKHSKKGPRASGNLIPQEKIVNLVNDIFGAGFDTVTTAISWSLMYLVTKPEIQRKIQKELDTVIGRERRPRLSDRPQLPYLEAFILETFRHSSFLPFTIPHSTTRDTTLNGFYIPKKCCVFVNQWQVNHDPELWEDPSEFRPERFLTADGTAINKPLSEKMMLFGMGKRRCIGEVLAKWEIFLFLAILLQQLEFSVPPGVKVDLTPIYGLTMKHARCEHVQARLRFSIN

| SMILES | inhibition at 10 µM (RAW264.7 [6]) [%] | IC50 (L02 [9]) [µM] | Activity (RAW264.7 [12]) | further results |
| --- | --- | --- | --- | --- |
| CCOc1ccc(NC(C)=O)cc1 [PHENACETIN] | – | – | – | half-life [1]: 43.8 min; hepatocyte CLint [2]: 21.3 µL/min/1e6 cells; hepatocyte CLint [3]: 15.8 µL/min/1e6 cells; half-life [4]: 32.6 min |
| C[C@@H]1C[C@H]2[C@@H]3CCC4=CC(=O)C=C[C@]4(C)[C@@]3(F)[C@@H](O)C[C@]2(C)[C@@]1(O)C(=O)CO [DEXAMETHASONE] | 51.8 | 4620 | – | IC50 (RAW264.7 [5]): > 50 µM; IC50 (L02 [7]): 4620 µM; IC50 [8]: > 10 µM; IC50 (RAW264.7 [10]): > 50 µM; IC50 (RAW264.7 [11]): 8.71 µM |
| COc1ccc2c(c1)[C@]13CCCC[C@@H]1[C@H](C2)N(C)CC3 [DEXTROMETHORPHAN] | – | – | – | half-life [1]: 14.5 min; hepatocyte CLint [2]: 150 µL/min/1e6 cells; hepatocyte CLint [3]: 47.8 µL/min/1e6 cells; half-life [4]: 4.6 min |
| COc1cc(/C=C/c2nc(Nc3ccc(C(F)(F)F)cc3)c3sccc3n2)cc(OC)c1OC | 55.4 | 436 | Non-Toxic | IC50 (RAW264.7 [5]): > 50 µM; IC50 (L02 [7]): 436 µM; IC50 [8]: 4.2 µM; IC50 (RAW264.7 [10]): > 50 µM; IC50 (RAW264.7 [11]): 9.36 µM |
| COc1cc(/C=C/c2nc(NCc3ccc(Cl)cc3)c3sccc3n2)cc(OC)c1OC | 65.5 | > 1000 | Non-Toxic | IC50 (RAW264.7 [5]): > 50 µM; IC50 (L02 [7]): 4320 µM; IC50 [8]: 4.23 µM; IC50 (RAW264.7 [10]): > 50 µM; IC50 (RAW264.7 [11]): 9.05 µM |
| COc1ccc2[nH]c([S+]([O-])Cc3ncc(C)c(OC)c3C)nc2c1 (stereo not drawn) [OMEPRAZOLE] | – | – | – | half-life [1]: 28.2 min; hepatocyte CLint [2]: 51.4 µL/min/1e6 cells; hepatocyte CLint [3]: 24.6 µL/min/1e6 cells; half-life [4]: 13.5 min |
| COc1cc(/C=C/c2nc(NC3CC3)c3sccc3n2)cc(OC)c1OC | 90.7 | > 1000 | Non-Toxic | IC50 (RAW264.7 [5]): > 50 µM; IC50 (L02 [7]): 2360 µM; IC50 [8]: 4.32 µM; IC50 (RAW264.7 [10]): > 50 µM; IC50 (RAW264.7 [11]): 6.03 µM |
| COc1ccc(Nc2nc(/C=C/c3cc(OC)c(OC)c(OC)c3)nc3ccsc23)cc1 | 52.5 | 279 | Non-Toxic | IC50 (RAW264.7 [5]): > 50 µM; IC50 (L02 [7]): 279 µM; IC50 [8]: 5.12 µM; IC50 (RAW264.7 [10]): > 50 µM; IC50 (RAW264.7 [11]): 10.7 µM |
| Cc1ncc2n1-c1ccc(Cl)cc1C(c1ccccc1F)=NC2 [MIDAZOLAM] | – | – | – | half-life [1]: 16.3 min; hepatocyte CLint [2]: 176 µL/min/1e6 cells; hepatocyte CLint [3]: 42.6 µL/min/1e6 cells; half-life [4]: 3.9 min |
| COc1cc(/C=C/c2nc(Nc3ccc(O)cc3)c3sccc3n2)cc(OC)c1OC | 97.7 | > 1000 | Non-Toxic | IC50 (RAW264.7 [5]): > 50 µM; IC50 (L02 [7]): 2300 µM; IC50 [8]: 1.89 µM; IC50 (RAW264.7 [10]): > 50 µM; IC50 (RAW264.7 [11]): 4.07 µM |
| O=c1cc(-c2ccccc2)oc2ccc3ccccc3c12 [BETA-NAPHTHOFLAVONE] | – | – | – | IC50 (Cytochrome P450 1A2): 0.0835 µM |
| COc1ccc(CNc2nc(/C=C/c3cc(OC)c(OC)c(OC)c3)nc3ccsc23)cc1 | 73.7 | > 1000 | Non-Toxic | IC50 (RAW264.7 [5]): > 50 µM; IC50 (L02 [7]): 2050 µM; IC50 [8]: 3.26 µM; IC50 (RAW264.7 [10]): > 50 µM; IC50 (RAW264.7 [11]): 7.54 µM |
| COc1cc(/C=C/c2nc(Cl)cc(NC(C)C)n2)cc(OC)c1OC | 29 | < 40 | Non-Toxic | – |
| CCCc1nn(C)c2c(NCCc3cccc(Cl)c3)nc(CCc3cccnc3)nc12 | 37.5 | 612 | Non-Toxic | – |
| COc1cc(/C=C/c2nc(N(C)c3ccccc3)c3sccc3n2)cc(OC)c1OC | 32.5 | 767 | Non-Toxic | – |
| COc1cc(/C=C/c2nc(NCc3ccco3)c3sccc3n2)cc(OC)c1OC | 46.5 | 189 | Non-Toxic | – |

| SMILES | inhibition at 10 µM (RAW264.7 [6]) [%] | IC50 (L02 [9]) [µM] | Activity (RAW264.7 [12]) | further results |
| --- | --- | --- | --- | --- |
| COc1cc(/C=C/c2nc(N3CCOCC3)c3sccc3n2)cc(OC)c1OC | 12.2 | > 1000 | Non-Toxic | – |
| CCCc1nn(C)c2c(N3CCS(=O)(=O)CC3)nc(/C=C/c3cccnc3)nc12 | 60.2 | 472 | Non-Toxic | – |
| Brc1cccc(Nc2nc(/C=C/c3ccccc3)nc3ccsc23)c1 | 28.8 | > 1000 | Non-Toxic | – |
| CNc1nc(/C=C/c2cc(OC)c(OC)c(OC)c2)nc2ccsc12 | 39.5 | > 1000 | Non-Toxic | – |
| COc1cc(/C=C/c2nc(NCc3ccccc3)c3sccc3n2)cc(OC)c1OC | 71.9 | > 1000 | Non-Toxic | IC50 (RAW264.7 [5]): > 50 µM; IC50 (L02 [7]): 1800 µM; IC50 [8]: 3.62 µM; IC50 (RAW264.7 [10]): > 50 µM; IC50 (RAW264.7 [11]): 8.26 µM |
| O=C(O)Cc1ccccc1Nc1c(Cl)cccc1Cl [DICLOFENAC] | – | – | – | half-life [1]: 9.1 min; hepatocyte CLint [2]: 50.3 µL/min/1e6 cells; hepatocyte CLint [3]: 75.8 µL/min/1e6 cells; half-life [4]: 13.6 min |
| CCCc1nn(C)c2c(NC(C)C)nc(/C=C/c3ccc[n+]([O-])c3)nc12 | 45.8 | 324 | Non-Toxic | – |
| COc1cc(/C=C/c2nc(NCc3ccncc3)c3sccc3n2)cc(OC)c1OC | 76 | 374 | Non-Toxic | IC50 (RAW264.7 [5]): > 50 µM; IC50 (L02 [7]): 374 µM; IC50 [8]: 3.12 µM; IC50 (RAW264.7 [10]): > 50 µM; IC50 (RAW264.7 [11]): 6.35 µM |
| COc1cc(/C=C/c2nc(N3CCCC3)c3sccc3n2)cc(OC)c1OC | 33.2 | 681 | Non-Toxic | – |
| COc1cc(/C=C/c2nccc(NCCc3ccccc3)n2)cc(OC)c1OC | 85 | < 40 | Non-Toxic | – |
| CCCc1nn(C)c2c(NCCc3cccc(Cl)c3)nc(/C=C/c3cccnc3)nc12 | 66.7 | > 1000 | Non-Toxic | – |
| CCCCNc1nc(/C=C/c2ccccc2)nc2ccsc12 | 22.4 | > 1000 | Non-Toxic | – |
| Brc1ccc(Nc2nc(/C=C/c3ccccc3)nc3ccsc23)cc1 | 19.5 | > 1000 | Non-Toxic | – |
| Fc1ccccc1CNc1nc(/C=C/c2ccco2)nc2ccsc12 | 11.7 | > 1000 | Non-Toxic | – |
| COc1cc(/C=C/c2nc(N(C)C)c3sccc3n2)cc(OC)c1OC | 27.2 | > 1000 | Non-Toxic | – |
| COc1cc(/C=C/c2nc(NCc3ccccc3Cl)c3sccc3n2)cc(OC)c1OC | 21.9 | > 1000 | Non-Toxic | – |
